Experimental data from patent EP4745138A1, “THIO-GLUTARIMIDO ISOINDOLINONE DERIVATIVE, BIFUNCTIONAL PROTEIN DEGRADER CONTAINING SAME, AND USES THEREOF” (Gluetacs Therapeutics (Shanghai) Co., Ltd., priority 2023, dated 2025).
Where two headings read alike, the source gives them in different places.

Experiments:
[1] = target: T1, GSPT1 (Homo sapiens, UniProt P15170+Q96SW2); assay: Western blot, substrate protein degradation in hPBMC Cell; format: cell-based; settings: substrate protein remaining %, treated at 50 nM and 500 nM, 24 hours
T1 construct: endogenous in cells; host or cells: hPBMC
T1 sequence (P15170 whole entry): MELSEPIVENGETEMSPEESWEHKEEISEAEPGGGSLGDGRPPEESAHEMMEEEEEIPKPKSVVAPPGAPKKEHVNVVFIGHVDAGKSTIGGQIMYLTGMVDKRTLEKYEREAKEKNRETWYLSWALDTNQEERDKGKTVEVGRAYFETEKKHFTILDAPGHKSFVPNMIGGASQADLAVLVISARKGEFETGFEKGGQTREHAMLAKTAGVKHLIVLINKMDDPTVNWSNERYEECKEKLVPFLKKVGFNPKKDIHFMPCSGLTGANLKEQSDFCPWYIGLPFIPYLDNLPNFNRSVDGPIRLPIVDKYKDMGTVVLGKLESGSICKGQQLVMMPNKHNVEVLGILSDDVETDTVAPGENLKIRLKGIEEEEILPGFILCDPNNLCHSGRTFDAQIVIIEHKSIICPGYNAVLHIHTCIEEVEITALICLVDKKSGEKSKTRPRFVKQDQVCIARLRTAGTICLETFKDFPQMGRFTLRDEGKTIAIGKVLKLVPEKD
T1 sequence (Q96SW2 whole entry): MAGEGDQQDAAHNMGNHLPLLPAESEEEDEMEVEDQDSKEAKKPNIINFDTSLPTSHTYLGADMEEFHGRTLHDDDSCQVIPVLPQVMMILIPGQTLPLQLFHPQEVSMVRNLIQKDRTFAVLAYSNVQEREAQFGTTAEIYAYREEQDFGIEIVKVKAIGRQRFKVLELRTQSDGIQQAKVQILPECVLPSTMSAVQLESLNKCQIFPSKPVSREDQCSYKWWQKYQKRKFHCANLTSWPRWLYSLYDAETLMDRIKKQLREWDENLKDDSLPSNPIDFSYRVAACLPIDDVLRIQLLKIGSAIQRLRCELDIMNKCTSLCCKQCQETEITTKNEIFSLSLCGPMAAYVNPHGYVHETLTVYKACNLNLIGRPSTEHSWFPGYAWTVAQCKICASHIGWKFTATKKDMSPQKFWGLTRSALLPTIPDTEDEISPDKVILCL
T1 sequence (Q16531 whole entry partner): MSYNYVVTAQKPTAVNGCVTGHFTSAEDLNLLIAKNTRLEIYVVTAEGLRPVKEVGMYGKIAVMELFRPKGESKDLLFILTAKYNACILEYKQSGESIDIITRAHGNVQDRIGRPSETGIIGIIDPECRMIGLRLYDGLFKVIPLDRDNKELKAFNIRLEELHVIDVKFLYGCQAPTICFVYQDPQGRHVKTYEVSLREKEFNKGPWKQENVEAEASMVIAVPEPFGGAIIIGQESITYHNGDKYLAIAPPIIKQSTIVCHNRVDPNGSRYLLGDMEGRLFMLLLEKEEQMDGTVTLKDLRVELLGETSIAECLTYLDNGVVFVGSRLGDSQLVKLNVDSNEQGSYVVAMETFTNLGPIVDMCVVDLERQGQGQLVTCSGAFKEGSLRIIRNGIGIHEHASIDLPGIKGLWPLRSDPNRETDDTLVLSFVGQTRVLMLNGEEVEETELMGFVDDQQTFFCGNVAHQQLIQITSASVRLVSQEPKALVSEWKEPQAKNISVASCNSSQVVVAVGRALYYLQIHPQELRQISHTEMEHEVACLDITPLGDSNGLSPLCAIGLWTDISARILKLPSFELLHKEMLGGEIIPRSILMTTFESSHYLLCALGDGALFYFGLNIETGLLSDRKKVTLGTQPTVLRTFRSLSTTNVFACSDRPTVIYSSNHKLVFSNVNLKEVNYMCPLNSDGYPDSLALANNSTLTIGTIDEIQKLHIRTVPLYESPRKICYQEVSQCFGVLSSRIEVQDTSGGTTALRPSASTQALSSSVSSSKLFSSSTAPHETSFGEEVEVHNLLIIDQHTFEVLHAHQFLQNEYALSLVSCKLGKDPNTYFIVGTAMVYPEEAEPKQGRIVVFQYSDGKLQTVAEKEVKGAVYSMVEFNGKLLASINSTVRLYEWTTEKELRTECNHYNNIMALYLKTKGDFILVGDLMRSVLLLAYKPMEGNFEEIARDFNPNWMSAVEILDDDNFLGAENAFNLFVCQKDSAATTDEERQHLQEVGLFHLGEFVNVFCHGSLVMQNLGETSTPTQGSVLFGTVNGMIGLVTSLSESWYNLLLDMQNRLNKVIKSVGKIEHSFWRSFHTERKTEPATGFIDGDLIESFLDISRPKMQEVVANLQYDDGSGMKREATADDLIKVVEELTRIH
Procedure: (§1) Conventional Western blot assay was performed to evaluate the effects of the compounds of the present disclosure on the expression of target proteins in cells.
(§2) (1) Cell Seeding and Protein Harvesting: The selected cells were processed according to the cell seeding procedure and protein harvesting procedure in Table II-2. Table II-2 Cell Seeding and Protein Harvesting Procedures
(§3) (2) To the collected supernatant, 5X SDS sample loading buffer was added, followed by denaturation at 95°C for 5 minutes. The denatured samples were then separated by SDS-PAGE electrophoresis on a polyacrylamide gel. Proteins were transferred to a nitrocellulose membrane (0.45 µm NC membrane), blocked with blocking buffer at room temperature for 1 hour, and subjected to antibody incubation and development procedures according to the antibody manufacturer's instructions (Cell Signaling Technology).
(§4) Half-Maximal Degradation Concentration value (the drug concentration required for degrading proteins by 50%, abbreviated as DC50) reads method: comparing the grayscale values of Western blot bands from drug-treated samples with those from blank DMSO-treated controls, and identifying the drug concentration range at which the grayscale value is half that of the DMSO-treated control bands.
(§5) DC50 values can be calculated using ImageJ software to measure grayscale values of Western blot bands from drug-treated samples. The concentration-response curve is fitted to estimate the drug concentration corresponding to half the grayscale value.
(§6) Target protein remaining (%) refers to the percentage of target protein remaining in cells after treatment with protein degrader compounds.
(§7) Calculation method for target protein remaining (%): Use ImageJ software to measure grayscale values of Western blot bands from drug (protein degrader)-treated samples. The grayscale value of drug-treated bands is divided by that of internal control protein bands, and the resulting quotient is normalized to obtain the relative percentage of remaining target protein after protein degrader treatment. Target protein degradation rate(%) = 1−target protein remaining(%). [formula]

[2] = target: T2, IKZF3 (Homo sapiens, UniProt Q96SW2+Q9UKT9); assay: as above; format: cell-based; settings: substrate protein remaining %, treated at 50 nM and 500 nM, 24 hours
T2 construct: endogenous in cells; host or cells: hPBMC
Procedure: as §1, §2, §3, §4, §5, §6, §7

[3] = target: T3, IKZF1 (Homo sapiens, UniProt Q13422+Q96SW2); assay: as above; format: cell-based; settings: substrate protein remaining %, treated at 50 nM and 500 nM, 24 hours
T3 construct: endogenous in cells; host or cells: hPBMC
T3 sequence (Q13422 whole entry): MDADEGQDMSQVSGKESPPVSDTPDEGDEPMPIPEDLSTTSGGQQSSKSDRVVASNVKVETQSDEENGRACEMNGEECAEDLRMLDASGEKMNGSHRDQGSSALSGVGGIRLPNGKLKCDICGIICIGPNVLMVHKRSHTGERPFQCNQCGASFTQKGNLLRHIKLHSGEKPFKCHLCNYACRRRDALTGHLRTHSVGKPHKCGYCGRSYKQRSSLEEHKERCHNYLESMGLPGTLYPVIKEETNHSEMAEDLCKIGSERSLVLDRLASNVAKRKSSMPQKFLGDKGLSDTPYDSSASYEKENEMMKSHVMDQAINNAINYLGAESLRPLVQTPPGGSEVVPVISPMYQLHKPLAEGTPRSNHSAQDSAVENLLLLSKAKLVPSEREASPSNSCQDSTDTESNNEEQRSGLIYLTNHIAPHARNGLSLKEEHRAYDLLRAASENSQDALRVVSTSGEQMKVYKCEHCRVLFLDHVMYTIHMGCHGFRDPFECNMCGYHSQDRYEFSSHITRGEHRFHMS
T3 sequence (Q96SW2 whole entry): as the sequence (Q96SW2 whole entry) above
T3 sequence (Q16531 whole entry partner): as the sequence (Q16531 whole entry partner) above
Procedure: as §1, §2, §3, §4, §5, §6, §7

[4] = target: T4, IKZF2 (Homo sapiens, UniProt Q96SW2+Q9UKS7); assay: as above; format: cell-based; settings: substrate protein remaining %, treated at 50 nM and 500 nM, 24 hours
T4 construct: endogenous in cells; host or cells: hPBMC
T4 sequence (Q9UKS7 whole entry): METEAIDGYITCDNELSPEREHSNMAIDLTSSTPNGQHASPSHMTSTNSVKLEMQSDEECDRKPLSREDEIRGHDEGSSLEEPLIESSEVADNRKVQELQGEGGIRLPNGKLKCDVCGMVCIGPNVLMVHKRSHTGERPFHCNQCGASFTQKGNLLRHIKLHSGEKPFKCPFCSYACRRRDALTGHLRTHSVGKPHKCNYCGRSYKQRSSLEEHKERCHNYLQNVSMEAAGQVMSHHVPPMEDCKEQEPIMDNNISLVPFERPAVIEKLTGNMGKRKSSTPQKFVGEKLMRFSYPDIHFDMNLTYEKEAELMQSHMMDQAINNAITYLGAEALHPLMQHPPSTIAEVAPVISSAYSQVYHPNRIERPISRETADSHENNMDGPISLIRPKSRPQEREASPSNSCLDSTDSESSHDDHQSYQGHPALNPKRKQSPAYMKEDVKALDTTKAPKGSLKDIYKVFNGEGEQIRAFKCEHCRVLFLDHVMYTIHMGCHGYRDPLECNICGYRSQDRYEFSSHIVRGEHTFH
T4 sequence (Q96SW2 whole entry): as the sequence (Q96SW2 whole entry) above
T4 sequence (Q16531 whole entry partner): as the sequence (Q16531 whole entry partner) above
Procedure: as §1, §2, §3, §4, §5, §6, §7

[5] = target: T5, CK1α (Homo sapiens, UniProt P48729+Q96SW2); assay: as above; format: cell-based; settings: substrate protein remaining %, treated at 50 nM and 500 nM, 24 hours
T5 construct: endogenous in cells; host or cells: hPBMC
T5 sequence (P48729 whole entry): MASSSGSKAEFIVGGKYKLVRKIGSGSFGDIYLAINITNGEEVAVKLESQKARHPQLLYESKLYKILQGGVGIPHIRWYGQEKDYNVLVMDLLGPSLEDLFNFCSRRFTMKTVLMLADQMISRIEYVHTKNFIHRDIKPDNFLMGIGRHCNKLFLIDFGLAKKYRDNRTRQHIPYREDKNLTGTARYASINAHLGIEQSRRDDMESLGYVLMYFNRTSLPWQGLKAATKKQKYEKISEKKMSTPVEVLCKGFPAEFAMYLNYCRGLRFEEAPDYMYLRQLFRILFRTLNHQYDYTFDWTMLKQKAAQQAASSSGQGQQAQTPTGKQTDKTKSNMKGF
T5 sequence (Q96SW2 whole entry): as the sequence (Q96SW2 whole entry) above
T5 sequence (Q16531 whole entry partner): as the sequence (Q16531 whole entry partner) above
Procedure: as §1, §2, §3, §4, §5, §6, §7

[6] = system: WEE1; assay: as above; format: cell-based, Human; settings: substrate protein remaining %, treated at 50 nM and 500 nM, 24 hours
Procedure: as §1, §2, §3, §4, §5, §6, §7

[7] = target: T6, human Cereblon WT GST-tagged protein (Homo sapiens, UniProt Q96SW2); assay: CRBN-binding affinity, HTRF (CEREBLON BINDING kit); settings: for IC50: CRBN binding, HTRF; for inhibition at 0.5 µM: read-out: Inhibition Rate at 0.5 µM (%); for inhibition at 2 µM: read-out: Inhibition Rate at 2 µM (%)
T6 construct: purchased CISBIO 64BDCRBNPEH
T6 sequence (Q96SW2 whole entry): as the sequence (Q96SW2 whole entry) above
Summary of the method: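 GST-tagged human wild-type Cereblon is mixed with test compound (final 2 µM and 0.5 µM) plus an anti-GST europium antibody/thalidomide-Red tracer pair. Binding is read as HTRF displacement, with buffer-only blank wells.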

[8] = system: MM.1S; assay: Tumor cell proliferation inhibition (CellTiter-Meiluncell Luminescent Cell Viability Assay); format: cell-based; settings: MM.1S, 96 hours; for inhibition at 0.01 µM / inhibition at 0.5 µM: Homo sapiens, MM1.S; for inhibition at 0.01 µM: read-out: Inhibition Rate at 10 nM (%); for inhibition at 0.5 µM: 500 nM, read-out: Inhibition Rate at 500 nM (%)
Summary of the method: (§8)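 Following overnight seeding, tumor cells received serial compound dilutions to final levels that included 10 nM and 500 nM. Viability was assessed by luminescence at the end of the specified exposure time. Cultures were kept at 37°C with 5% CO2.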

[9] = target: T7, CDK6 (Homo sapiens, UniProt Q00534); assay: Western blot, target protein degradation in MDA-MB-231 Cell; format: cell-based; settings: substrate protein remaining %, treated at 500 nM and 50 nM, 24 hours
T7 construct: endogenous in cells; host or cells: MDA-MB-231
T7 sequence (Q00534 whole entry): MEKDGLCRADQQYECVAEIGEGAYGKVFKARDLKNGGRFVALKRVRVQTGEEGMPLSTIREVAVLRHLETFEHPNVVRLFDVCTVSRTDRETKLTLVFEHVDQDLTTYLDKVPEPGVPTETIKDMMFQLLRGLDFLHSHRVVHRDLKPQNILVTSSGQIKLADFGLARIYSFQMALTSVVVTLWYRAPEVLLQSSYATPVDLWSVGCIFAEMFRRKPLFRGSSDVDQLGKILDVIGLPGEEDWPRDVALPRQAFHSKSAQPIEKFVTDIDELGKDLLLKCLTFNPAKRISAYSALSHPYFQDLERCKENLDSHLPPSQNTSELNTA
Procedure: as §1, §2, §3, §4, §5, §6, §7

[10] = target: T8, CDK4 (Homo sapiens, UniProt P11802); assay: as above; format: cell-based; settings: substrate protein remaining %, treated at 500 nM and 50 nM, 24 hours
T8 construct: endogenous in cells; host or cells: MDA-MB-231
T8 sequence (P11802 whole entry): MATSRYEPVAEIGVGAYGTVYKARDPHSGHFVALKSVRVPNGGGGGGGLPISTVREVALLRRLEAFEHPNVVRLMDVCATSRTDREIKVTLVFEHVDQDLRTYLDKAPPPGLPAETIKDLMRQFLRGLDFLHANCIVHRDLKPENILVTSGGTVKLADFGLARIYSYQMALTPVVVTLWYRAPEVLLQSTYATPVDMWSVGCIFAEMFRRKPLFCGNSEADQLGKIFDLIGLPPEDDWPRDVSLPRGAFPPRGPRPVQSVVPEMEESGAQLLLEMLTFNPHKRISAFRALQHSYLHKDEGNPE
Procedure: as §1, §2, §3, §4, §5, §6, §7

[11] = system: MV-4-11; assay: Tumor cell proliferation inhibition (CellTiter-Meiluncell Luminescent Cell Viability Assay); format: cell-based; settings: Homo sapiens, 96 hours, Table I-9, CDK4/6 inhibitors
Summary of the method: as §8

[12] = system: CFPAC-1; assay: as above; format: cell-based; settings: Homo sapiens, 96 hours, Table I-2, ALK inhibitors
Summary of the method: as §8

[13] = system: A375; assay: as above; format: cell-based; settings: Homo sapiens, 96 hours, Table I-2, ALK inhibitors
Summary of the method: as §8

[14] = 10 nM, Table I-16, compounds of Formula (II)

## O=C1CCC(N2Cc3ccccc3C2=S)C(=O)N1 (stereo not drawn) [GT-05563, 3-(1-thioxoisoindolin-2-yl)piperidine-2,6-dione]
[1]
  Degradation of substrate protein GSPT1: A (0% ≤ substrate protein remaining % ≤ 80%)
[2]
  Degradation of substrate protein IKZF3: A (0% ≤ substrate protein remaining % ≤ 80%)
[3]
  Degradation of substrate protein IKZF1: A (0% ≤ substrate protein remaining % ≤ 80%)
[4]
  Degradation of substrate protein IKZF2: A (0% ≤ substrate protein remaining % ≤ 80%)
[5]
  Degradation of substrate protein CK1α: B (80%< substrate protein remaining %≤ 100%)
[6]
  Degradation of substrate protein WEE1: A (0% ≤ substrate protein remaining % ≤ 80%)
[7]
  IC50: < 500 nM

## O=C1CCC(N2Cc3ccc(CO)cc3C2=S)C(=O)N1 (stereo not drawn) [GT-05566, 3-(6-(hydroxymethyl)-1-thioxoisoindolin-2-yl)piperidine-2,6-dione]
[8]; [14]
  inhibition at 0.01 µM: 20 to 30%
[1]
  Degradation of substrate protein GSPT1: A (0% ≤ substrate protein remaining % ≤ 80%)
[2]
  Degradation of substrate protein IKZF3: A (0% ≤ substrate protein remaining % ≤ 80%)
[3]
  Degradation of substrate protein IKZF1: A (0% ≤ substrate protein remaining % ≤ 80%)
[4]
  Degradation of substrate protein IKZF2: A (0% ≤ substrate protein remaining % ≤ 80%)
[5]
  Degradation of substrate protein CK1α: B (80%< substrate protein remaining %≤ 100%)
[6]
  Degradation of substrate protein WEE1: A (0% ≤ substrate protein remaining % ≤ 80%)
[7]
  IC50: < 500 nM

## O=C1CCC(N2Cc3cc(CO)ccc3C2=S)C(=O)N1 (stereo not drawn) [GT-06977, 3-(5-(hydroxymethyl)-1-thioxoisoindolin-2-yl)piperidine-2,6-dione]
[8]; Table I-16, compounds of Formula (II)
  inhibition at 0.5 µM: 35 to 40%
[8]; [14]
  Inhibition Rate at 10 nM (%): ln6
[1]
  Degradation of substrate protein GSPT1: B (80%< substrate protein remaining %≤ 100%)
[2]
  Degradation of substrate protein IKZF3: A (0% ≤ substrate protein remaining % ≤ 80%)
[3]
  Degradation of substrate protein IKZF1: B (80%< substrate protein remaining %≤ 100%)
[4]
  Degradation of substrate protein IKZF2: B (80%< substrate protein remaining %≤ 100%)
[5]
  Degradation of substrate protein CK1α: B (80%< substrate protein remaining %≤ 100%)
[6]
  Degradation of substrate protein WEE1: B (80%< substrate protein remaining %≤ 100%)
[7]
  IC50: < 500 nM

## CN(C)C(=O)c1cc2cnc(Nc3ccc(N4CCN(Cc5ccc6c(c5)CN(C5CCC(=O)NC5=O)C6=S)CC4)cn3)nc2n1C1CCCC1 (stereo not drawn) [GT-08765, 7-cyclopentyl-2-((5-(4-((2-(2,6-dioxopiperidin-3-yl)-1-thioxoisoindolin-5-yl)methyl)piperazin-1-yl)pyridin-2-yl)amino)-N,N-dimethyl-7H-pyrrolo[2,3-d]pyrimidine-6-carboxamide]
[9]
  Degradation of substrate protein CDK6: A (0% ≤ substrate protein remaining % ≤ 80%)
[10]
  Degradation of substrate protein CDK4: A (0% ≤ substrate protein remaining % ≤ 80%)
[8]; 10 nM, Table I-9, CDK4/6 inhibitors
  inhibition at 0.01 µM: 30 to 40%
[8]; Table I-9, CDK4/6 inhibitors
  inhibition at 0.5 µM: 40 to 50%
[7]
  inhibition at 0.5 µM: 40 to 53%
  inhibition at 2 µM: 80 to 100%

## CC(=O)c1c(C)c2cnc(Nc3ccc(N4CCN(Cc5ccc6c(c5)CN(C5CCC(=O)NC5=O)C6=S)CC4)cn3)nc2n(C2CCCC2)c1=O (stereo not drawn) [GT-08766, 3-(5-((4-(6-((6-acetyl-8-cyclopentyl-5-methyl-7-oxo-7,8-dihydropyrido[2,3-d]pyrimidin-2-yl)amino)pyridin-3-yl)piperazin-1-yl)methyl)-1-thioxoisoindolin-2-yl)piperidine-2,6-dione]
[9]
  Degradation of substrate protein CDK6: A (0% ≤ substrate protein remaining % ≤ 80%)
[10]
  Degradation of substrate protein CDK4: A (0% ≤ substrate protein remaining % ≤ 80%)
[7]
  inhibition at 0.5 µM: 53 to 60%
  inhibition at 2 µM: 80 to 100%

## CN(C)C(=O)c1cc2cnc(Nc3ccc(N4CCN(Cc5cccc6c5CN(C5CCC(=O)NC5=O)C6=S)CC4)cn3)nc2n1C1CCCC1 (stereo not drawn) [GT-08771, 7-cyclopentyl-2-((5-(4-((2-(2,6-dioxopiperidin-3-yl)-1-thioxoisoindolin-4-yl)methyl)piperazin-1-yl)pyridin-2-yl)amino)-N,N-dimethyl-7H-pyrrolo[2,3-d]pyrimidine-6-carboxamide]
[9]
  Degradation of substrate protein CDK6: A (0% ≤ substrate protein remaining % ≤ 80%)
[10]
  Degradation of substrate protein CDK4: A (0% ≤ substrate protein remaining % ≤ 80%)
[7]
  inhibition at 0.5 µM: 60 to 80%
  inhibition at 2 µM: 80 to 100%

## CC(=O)c1c(C)c2cnc(Nc3ccc(N4CCN(Cc5cccc6c5CN(C5CCC(=O)NC5=O)C6=S)CC4)cn3)nc2n(C2CCCC2)c1=O (stereo not drawn) [GT-08772, 3-(4-((4-(6-((6-acetyl-8-cyclopentyl-5-methyl-7-oxo-7,8-dihydropyrido[2,3-d]pyrimidin-2-yl)amino)pyridin-3-yl)piperazin-1-yl)methyl)-1-thioxoisoindolin-2-yl)piperidine-2,6-dione]
[9]
  Degradation of substrate protein CDK6: A (0% ≤ substrate protein remaining % ≤ 80%)
[10]
  Degradation of substrate protein CDK4: A (0% ≤ substrate protein remaining % ≤ 80%)
[11]; MV4-11, 10 nM, read-out: Inhibition Rate at 10 nM (%)
  inhibition at 0.01 µM: 30 to 40%
[11]; MV4-11, 500 nM, read-out: Inhibition Rate at 500 nM (%)
  inhibition at 0.5 µM: 40 to 50%

## COc1cc(N2CCC(N3CCN(Cc4ccc5c(c4)CN(C4CCC(=O)NC4=O)C5=S)CC3)CC2)ccc1Nc1ncc(Cl)c(Nc2ccccc2P(C)(C)=O)n1 (stereo not drawn) [GT-09425, 3-(5-((4-(1-(4-((5-chloro-4-((2-(dimethylphosphoryl)phenyl)amino)pyrimidin-2-yl)amino)-3-methoxyphenyl)piperidin-4-yl)piperazin-1-yl)methyl)-1-thioxoisoindolin-2-yl)piperidine-2,6-dione]
[12]; 10 nM, read-out: Inhibition Rate at 10 nM (%)
  inhibition at 0.01 µM: 10 to 20%
[12]; 500 nM, read-out: Inhibition Rate at 500 nM (%)
  inhibition at 0.5 µM: 60 to 70%
[13]; A-375, 10 nM, read-out: Inhibition Rate at 10 nM (%)
  inhibition at 0.01 µM: 20 to 30%
[13]; A-375, 500 nM, read-out: Inhibition Rate at 500 nM (%)
  inhibition at 0.5 µM: 50 to 60%
[7]
  inhibition at 0.5 µM: 60 to 80%
  inhibition at 2 µM: 80 to 100%
